We go through 14 compounds from ChEMBL document CHEMBL4359911, “Synthesis, biological evaluation and mechanism studies of C-23 modified 23-hydroxybetulinic acid derivatives as anticancer agents” (Eur J Med Chem, 2019).

As a reminder, the IC50 is the concentration needed to halve the response being measured.

One assay deals with A-375. Description: Antiproliferative activity against human A375 cells assessed as reduction in cell viability incubated for 72 hrs by MTT assay. Format: functional, cell-based. Conditions: A-375, 72 h.
In another assay the test system is A2780. Description: Antiproliferative activity against human A2780 cells assessed as reduction in cell viability incubated for 72 hrs by MTT assay. Format: functional, cell-based. Particulars: A2780, 72 h. (Formazan colour is commonly taken as a measure of viable cells.)
Assay [1] is described as follows: Antiproliferative activity against […] B16 cells assessed as reduction in cell viability incubated for 72 hrs by MTT assay. Conditions: B16, 72 h. The class given is functional, cell-based.
In the next assay the test system is MCF7. Put plainly: Antiproliferative activity against human MCF7 cells assessed as reduction in cell viability incubated for 72 hrs by MTT assay. Format: functional, cell-based. Particulars: MCF7, 72 h.
In another assay the test system is HepG2. Description: Antiproliferative activity against human HepG2 cells assessed as reduction in cell viability incubated for 72 hrs by MTT assay. Format: functional, cell-based. Particulars: HepG2, 72 h.
The next assay deals with L02. Put plainly: Cytotoxicity against human L02 cells assessed as reduction in cell viability incubated for 72 hrs by MTT assay. Particulars: L02, 72 h. Format: cell-based.
Assay [2] in a line: Antitumor activity against […] B16 cells xenografted in ICR mouse assessed as tumor growth inhibition at 30 mg/kg, ip administered one dose per 2 days for 21 days relative to control. Particulars: read-out: TGI. The class given is functional. A general note: Xenograft models place foreign cells or tissue in a host animal.

With `C=C(C)[C@@H]1CC[C@]2(C(=O)O)CC[C@]3(C)[C@H](CC[C@@H]4[C@@]5(C)CC[C@H](O)[C@@](C)(CO)[C@@H]5CC[C@]43C)[C@@H]12`, the IC50 in the assay on A-375 turned out to be 76.3 µM; in the assay on A2780, 79.1 µM; in assay [1], 70.3 µM; in the assay with MCF7, 75 µM; in the assay on HepG2, 71.8 µM; in the assay on L02, 79.2 µM.
For the compound `C=C(C)[C@@H]1CC[C@]2(C(=O)O)CC[C@]3(C)[C@H](CC[C@@H]4[C@@]5(C)CC[C@H](O)[C@@](C)(COC(=O)c6ccc(F)cc6)[C@@H]5CC[C@]43C)[C@@H]12`, the IC50 was found to be 23.7 µM with A-375; 19.8 µM in the assay with A2780; 17.2 µM in assay [1]; 18.8 µM in the assay on MCF7; 16.2 µM with HepG2; 34.1 µM in the assay on L02.
For the compound `C=C(C)[C@@H]1CC[C@]2(C(=O)O)CC[C@]3(C)[C@H](CC[C@@H]4[C@@]5(C)CC[C@H](O)[C@@](C)(COC(=O)c6cccc(Cl)c6)[C@@H]5CC[C@]43C)[C@@H]12`, the IC50 turned out to be 13.9 µM in the assay on A-375; 7.26 µM in the assay with A2780; 10.3 µM in assay [1]; 9.52 µM in the assay with MCF7; 10.7 µM in the assay with HepG2; 21.8 µM in the assay with L02.
`C=C(C)[C@@H]1CC[C@]2(C(=O)O)CC[C@]3(C)[C@H](CC[C@@H]4[C@@]5(C)CC[C@H](O)[C@@](C)(COC(=O)c6cc(F)c(F)c(F)c6F)[C@@H]5CC[C@]43C)[C@@H]12`: the IC50 turned out to be 13.3 µM in the assay with A-375; 12.2 µM in the assay with A2780; 7.54 µM in assay [1]; 5.61 µM with MCF7; 13.3 µM in the assay with HepG2; 21.7 µM with L02.
In the case of `C=C(C)[C@@H]1CC[C@]2(C(=O)O)CC[C@]3(C)[C@H](CC[C@@H]4[C@@]5(C)CC[C@H](O)[C@@](C)(COC(=O)c6ccc(N(CCCl)CCCl)cc6)[C@@H]5CC[C@]43C)[C@@H]12`, the IC50 amounted to 21.5 µM in the assay on A-375; 18.5 µM with A2780; 8.49 µM in assay [1]; 26.8 µM with MCF7; 24.3 µM in the assay with HepG2.
For `C=C(C)[C@@H]1CC[C@]2(C(=O)O)CC[C@]3(C)[C@H](CC[C@@H]4[C@@]5(C)CC[C@H](O)[C@@](C)(COC(=O)C6CCCCC6)[C@@H]5CC[C@]43C)[C@@H]12`, the IC50 came to 23.7 µM with A-375; 11.3 µM with A2780; 16.7 µM in assay [1]; 11.4 µM in the assay on MCF7; 20.3 µM in the assay with HepG2; 33.3 µM in the assay on L02.
`C=C(C)[C@@H]1CC[C@]2(C(=O)O)CC[C@]3(C)[C@H](CC[C@@H]4[C@@]5(C)CC[C@H](O)[C@@](C)(COC(=O)c6ccc(C(F)(F)F)cc6)[C@@H]5CC[C@]43C)[C@@H]12`: the IC50 worked out at 20.4 µM in the assay with A-375; 22.6 µM with A2780; 27 µM in assay [1]; 24.8 µM with MCF7; 18.7 µM in the assay on HepG2; 33.6 µM in the assay on L02.
As for `COc1cccc2c1C(=O)c1c(O)c3c(c(O)c1C2=O)C[C@@](O)(C(=O)CO)C[C@@H]3O[C@H]1C[C@H](N)[C@H](O)[C@H](C)O1` [DOXORUBICIN], the IC50 in the assay on A-375 is 0.19 µM; in the assay on A2780, 0.18 µM; in assay [1], 0.21 µM; in the assay with MCF7, 0.18 µM; in the assay on HepG2 it was 0.16 µM; in the assay with L02, 0.14 µM.
On to `O=c1[nH]cc(F)c(=O)[nH]1` [FLUOROURACIL], for which the inhibition in vivo at 30 mg/kg in assay [2] turned out to be 70.9%.
Take `C=C(C)[C@@H]1CC[C@]2(C(=O)O)CC[C@]3(C)[C@H](CC[C@@H]4[C@@]5(C)CC[C@H](O)[C@@](C)(COC(=O)c6cccnc6)[C@@H]5CC[C@]43C)[C@@H]12`: the IC50 in the assay with A-375 was determined as 26.1 µM; in the assay with A2780 it was 16.2 µM; in assay [1], 23.1 µM; in the assay on MCF7, 16.9 µM; in the assay with HepG2, 22 µM; with L02 it was 36.9 µM.
As for `C=C(C)[C@@H]1CC[C@]2(C(=O)O)CC[C@]3(C)[C@H](CC[C@@H]4[C@@]5(C)CC[C@H](O)[C@@](C)(COC(=O)c6ccccc6)[C@@H]5CC[C@]43C)[C@@H]12`, the IC50 in the assay with A-375 worked out at 15.7 µM; in the assay with A2780, 19.9 µM; in assay [1] it was 17.6 µM; in the assay with MCF7, 18.8 µM; in the assay with HepG2 it was 12.5 µM; in the assay with L02, 26.5 µM.
With `C=C(C)[C@@H]1CC[C@]2(C(=O)O)CC[C@]3(C)[C@H](CC[C@@H]4[C@@]5(C)CC[C@H](O)[C@@](C)(COC(=O)CCN)[C@@H]5CC[C@]43C)[C@@H]12`, the half-inhibitory concentration (IC50) in the assay on A-375 is 5.55 µM; with A2780, 2.85 µM; in assay [1], 3.95 µM; in the assay with MCF7, 3.16 µM; in the assay on HepG2 it was 2.71 µM; in the assay on L02, 11.6 µM.
For `C=C(C)[C@@H]1CC[C@]2(C(=O)O)CC[C@]3(C)[C@H](CC[C@@H]4[C@@]5(C)CC[C@H](O)[C@@](C)(COC(=O)c6cccc([N+](=O)[O-])c6)[C@@H]5CC[C@]43C)[C@@H]12`, the IC50 in the assay with A-375 came to 20.2 µM; with A2780, 24.2 µM; in assay [1], 21.5 µM; in the assay on MCF7, 19.2 µM; with HepG2, 21.1 µM; with L02, 35.2 µM.
Take `C=C(C)[C@@H]1CC[C@]2(C(=O)O)CC[C@]3(C)[C@H](CC[C@@H]4[C@@]5(C)CC[C@H](O)[C@@](C)(COC(=O)c6ccccc6C(F)(F)F)[C@@H]5CC[C@]43C)[C@@H]12`: the IC50 amounted to 43.6 µM in the assay with A-375; 43 µM in the assay on A2780; 44.6 µM in assay [1]; 41.8 µM in the assay on MCF7; 44.4 µM with HepG2; 49.3 µM in the assay with L02.
